Data reported in US20250345447A1, “PHARMACEUTICAL COMPOSITION OF RECOMBINANT ANTI-HUMAN CLDN18.2 MONOCLONAL ANTIBODY-MMAE CONJUGATE” (CSPC MEGALITH BIOPHARMACEUTICAL CO., LTD., priority 2022, published 2025).
One block for each molecule: values may come before it.

Tests used:
[1] = system: human gastric cancer NUGC-4-18.2; experiment: NUGC-4-18.2 nude mouse xenograft tumor model, cisplatin as control; settings: 6 mg/kg i.v. qw×3, day 20
Protocol: 2) In this experiment, human gastric cancer NUGC-4-18.2 was selected to construct a nude mouse xenograft tumor model. When the tumor grew to a volume of about 120 mm^3 (day 6 after inoculation), 64 animals with good tumor growth were selected and equally divided into 8 groups (day 0) according to the tumor volume, with 8 animals in each group. […] The tumor diameters were measured twice a week, the mice were weighed, and the data were recorded. The change in the tumor growth was dynamically observed by measuring the tumor diameters at different times after administration. The experiment was ended on day 20, the animals were asphyxiated with carbon dioxide, and then the tumors were stripped off and weighed.

[2] = system: human pancreatic cancer Bxpc3-18.2; experiment: Bxpc3-18.2 nude mouse xenograft tumor model, gemcitabine as control; assay type: in vivo
Protocol: When the tumor grew to a volume of about 100 mm^3 (day 39 after inoculation), 48 animals with good tumor growth were selected and equally divided into 6 groups (day 0) according to the tumor volume, with 8 animals in each group. […] The tumor diameters were measured twice a week, the mice were weighed, and the data were recorded. The tumor growth was dynamically observed by measuring the tumor diameters at different times after administration. The experiment was ended on day 28, the mice were asphyxiated with carbon dioxide, and then the tumors were stripped off and weighed.

[3] = target: T1, cynomolgus monkey CLDN18.2 (cynomolgus monkey, UniProt A0A2K5VVB4 1-261); experiment: flow cytometry on CHO-K1-cynomolgus monkey CLDN18.2 cells, four-parameter fit; given as ED50
T1 chain: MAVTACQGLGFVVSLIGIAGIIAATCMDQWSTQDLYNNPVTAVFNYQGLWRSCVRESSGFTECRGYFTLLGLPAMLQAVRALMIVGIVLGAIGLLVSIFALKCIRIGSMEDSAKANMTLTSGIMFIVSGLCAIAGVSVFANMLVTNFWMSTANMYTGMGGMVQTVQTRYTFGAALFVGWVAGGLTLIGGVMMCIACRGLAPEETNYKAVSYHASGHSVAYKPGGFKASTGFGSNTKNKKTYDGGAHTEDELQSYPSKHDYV

[4] = target: mouse CLDN18.2 (mouse) (UniProt P56857); experiment: flow cytometry on HEK293-mouse CLDN18.2 cells, four-parameter fit; given as ED50
[5] = target: human CLDN18.2 (human) (UniProt P56856); experiment: flow cytometry on HEK293-human CLDN18.2 cells, four-parameter fit; given as ED50

Molecule: N.N.[Cl][Pt][Cl] [cisplatin, reference compound]
tumor weight inhibition rate [1]: 66.5%

Molecule: Nc1ccn([C@@H]2O[C@H](CO)[C@@H](O)C2(F)F)c(=O)n1 [Gemcitabine, gemcitabine, reference compound]
tumor weight inhibition rate ([2]; 50 mg/kg i.v. biw×4, day 28): 51.0%
tumor growth compared with the solvent control group ([2]; SYJS001-ADC 2, 4 and 8 mg/kg single, GEM 50 mg/kg biw×4, P<0.01): significantly inhibited

EC50 [3]: 0.648 µg/mL
EC50 [4]: 0.717 µg/mL
EC50 [5]: 0.439 µg/mL
B1: SYJS001-ADC (recombinant anti-human CLDN18.2 monoclonal antibody-MMAE conjugate) (antibody, human IgG1, kappa, V domains shown)
VH: EVQLSESGGALVQPGESLRLSCAASGFTFSSYAMTWVRQAPGKGLEWVSSLSGSGRSTYYAASIKGRFTISRDNSKNTLYLQMSSLRAEDTAIYYCAKSLSYYHYYFDYWGQGTLVTVSS
VL: DIQLTQSPSFLSASVGDRVPITCRASQDISNYLAWYQQKPGKAPKLLIYSASTLQSGVPSRFSGSGSGTEFTLTISSLQPEDFASYHCQQVKTYPLTFGGGTKVEIKR
modifications: one molecule of MMAE conjugated via the linker NH2-PEG3-Val-Cit (LND1002) by an amide (isopeptide) bond to Q298 (i.e., Q295 according to Kabat numbering) of each heavy chain; mean DAR 2.0
notes: also called anti-CLDN18.2 antibody-drug conjugate SYJS001-ADC
